Results on 23 compounds are retold here after PubChem BioAssay AID330 (DTP/NCI, 2004).

This assay concerns P388 leukemia ip, CD2F1 mice, survival T/C. Put plainly: NCI In Vivo Anticancer Drug Screen. Data for tumor model P388 Leukemia (intraperitoneal) in CD2F1 (CDF1) mice. The conditions noted are these: endpoint: median survival time, higher = longer survival. The procedure, abridged:
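Mice carrying the transplanted tumor received test compound or vehicle. Survival was recorded in each group, and the value is the treated-group measurement divided by that of the vehicle-treated control group.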

Setting [1] is: dose: 60.0 mg/kg/injection, schedule: Q01DX005 (ip), vehicle: Klucel (hydroxypropylcellulose) (HPC).
[2] abbreviates: dose: 120.0 mg/kg/injection, schedule: Q01DX005 (ip), vehicle: Klucel (hydroxypropylcellulose) (HPC).
The mark [3] stands for this setting: dose: 60.0 mg/kg/injection, schedule: Q01DX005 (ip), vehicle: saline with Tween-80.
Where [4] appears, read: dose: 120.0 mg/kg/injection, schedule: Q01DX005 (ip), vehicle: saline with Tween-80.
Where [5] appears, read: dose: 240.0 mg/kg/injection, schedule: Q01DX005 (ip), vehicle: saline with Tween-80.
The mark [6] stands for this setting: dose: 50.0 mg/kg/injection, schedule: Q01DX005 (ip), vehicle: Klucel (hydroxypropylcellulose) (HPC).
Where [7] appears, read: dose: 100.0 mg/kg/injection, schedule: Q01DX005 (ip), vehicle: Klucel (hydroxypropylcellulose) (HPC).
Setting [8] is: dose: 200.0 mg/kg/injection, schedule: Q01DX005 (ip), vehicle: Klucel (hydroxypropylcellulose) (HPC).
The mark [9] stands for this setting: dose: 12.5 mg/kg/injection, schedule: Q01DX009 (ip), vehicle: Klucel (hydroxypropylcellulose) (HPC).
[10] abbreviates: dose: 25.0 mg/kg/injection, schedule: Q01DX009 (ip), vehicle: Klucel (hydroxypropylcellulose) (HPC).
Where [11] appears, read: dose: 50.0 mg/kg/injection, schedule: Q01DX009 (ip), vehicle: Klucel (hydroxypropylcellulose) (HPC).
Setting [12] is: dose: 50.0 mg/kg/injection, schedule: Q01DX005 (ip), vehicle: saline with Tween-80.
[13] abbreviates: dose: 100.0 mg/kg/injection, schedule: Q01DX005 (ip), vehicle: saline with Tween-80.
Where [14] appears, read: dose: 200.0 mg/kg/injection, schedule: Q01DX005 (ip), vehicle: saline with Tween-80.

Where “and” joins values, the source holds several entries; their conditions need not be identical. Equal entries are not always repeated. Inconclusive results and toxic doses are left out.

With `COC(=O)C1=C(C(=O)OC)C23C(=O)c4ccc(OC)c(OC)c4C1(OC)N2CCc1cc2c(cc13)OCO2` (centres undefined), the T/C (dose: 50.0 mg/kg/injection, schedule: Q04DX002 (ip), vehicle: saline with Tween-80) is 96 % of control; the T/C (dose: 100.0 mg/kg/injection, schedule: Q04DX002 (ip), vehicle: saline with Tween-80) was 96 % of control; the T/C (dose: 200.0 mg/kg/injection, schedule: Q04DX002 (ip), vehicle: saline with Tween-80) is 100 % of control.

With `COc1ccc(-n2c(C)c(COC(=O)NC(C)C)c(COC(=O)NC(C)C)c2C)cc1`, the T/C is, setting by setting: (dose: 20.0 mg/kg/injection, schedule: Q01DX005 (ip), vehicle: Klucel (hydroxypropylcellulose) (HPC)) 163 % of control; (dose: 40.0 mg/kg/injection, schedule: Q01DX005 (ip), vehicle: Klucel (hydroxypropylcellulose) (HPC)) 172 % of control; under setting [1], 150 % of control and 186 % of control; under setting [2], 181 % of control.

With `O=c1[nH]cnc2nc3c(nc12)CCc1ccccc1-3`, the T/C runs as follows: under setting [3], 100 % of control; under setting [4], 102 % of control; under setting [5], 97 % of control.

Regarding `O=C(O)/C=C/CCCCCO`, the T/C was 94 % of control (dose: 100.0 mg/kg/injection, schedule: Q01DX001 (ip), vehicle: saline with Tween-80); 97 % of control (dose: 200.0 mg/kg/injection, schedule: Q01DX001 (ip), vehicle: saline with Tween-80); 90 % of control (dose: 400.0 mg/kg/injection, schedule: Q01DX001 (ip), vehicle: saline with Tween-80).

Take `CCc1c2c(cc3c1[nH]c1ccccc13)C(=O)NC2=O`: the T/C was 99 % of control (dose: 25.0 mg/kg/injection, schedule: Q01DX005 (ip), vehicle: Klucel (hydroxypropylcellulose) (HPC)); 90 % of control and 92 % of control under setting [6]; 97 % of control under setting [7]; 94 % of control under setting [8].

Regarding `CC(C)NC(=O)N(CCCCBr)N=O`, the T/C (dose: 6.25 mg/kg/injection, schedule: Q01DX009 (ip), vehicle: Klucel (hydroxypropylcellulose) (HPC)) was 92 % of control; the T/C under setting [9] is 99 % of control; the T/C under setting [10] is 101 % of control; the T/C under setting [11] is 117 % of control.

As to `CCOC(=O)c1ccc(N=Cc2cccc([N+](=O)[O-])c2)cc1`, the T/C runs as follows: under setting [3], 91 % of control; under setting [4], 89 % of control; under setting [5], 90 % of control.

Consider `CCOC(=O)c1nn(C)c(=O)[nH]c1=O`, for which the T/C was 99 % of control under setting [12], 100 % of control under setting [13] and 100 % of control under setting [14].

Regarding `O=CC1=CSC(=C2SC=CS2)S1`, the T/C was 95 % of control (dose: 15.0 mg/kg/injection, schedule: Q01DX005 (ip), vehicle: Klucel + Tween-80); 87 % of control (dose: 30.0 mg/kg/injection, schedule: Q01DX005 (ip), vehicle: Klucel + Tween-80); 101 % of control under setting [1]; 106 % of control (dose: 60.0 mg/kg/injection, schedule: Q01DX005 (ip), vehicle: Klucel + Tween-80).

In the case of `OC1C[n+]2cc3ccccn3c2-c2cccc[n+]21` (centres undefined), the T/C is 94 % of control (dose: 12.5 mg/kg/injection, schedule: Q01DX009 (ip), vehicle: saline); 97 % of control (dose: 25.0 mg/kg/injection, schedule: Q01DX009 (ip), vehicle: saline); 100 % of control (dose: 50.0 mg/kg/injection, schedule: Q01DX009 (ip), vehicle: saline).

As to `CCOc1cccc2c(NCCCCCCCCNc3c4ccccc4nc4c(OCC)cccc34)c3ccccc3nc12`, the T/C was 166 % of control (dose: 3.75 mg/kg/injection, schedule: Q01DX009 (ip), vehicle: other) and 157 % of control (dose: 7.5 mg/kg/injection, schedule: Q01DX009 (ip), vehicle: other).

With `CC(=O)c1c(C)cc2cccc(O)c2c1O`, the T/C is 105 % of control (dose: 15.0 mg/kg/injection, schedule: Q01DX005 (ip), vehicle: Klucel (hydroxypropylcellulose) (HPC)); 112 % of control (dose: 30.0 mg/kg/injection, schedule: Q01DX005 (ip), vehicle: Klucel (hydroxypropylcellulose) (HPC)); 103 % of control under setting [1]; 108 % of control under setting [2].

On to `OCC1OC(n2cnc3c(I)ncnc32)C(O)C1O` (centres undefined), for which the T/C under setting [12] was 100 % of control, the T/C under setting [13] was 103 % of control and the T/C under setting [14] is 101 % of control.

As for `CC(C)CC(NCCC#N)C(=O)O` (centres undefined), the T/C was 105 % of control under setting [6], 105 % of control under setting [7] and 108 % of control under setting [8].

For the compound `Cc1cc(=O)n2[nH]c(-c3ccc(Cl)cc3)nc2n1`, the T/C under setting [11] is 106 % of control; the T/C (dose: 100.0 mg/kg/injection, schedule: Q01DX009 (ip), vehicle: Klucel (hydroxypropylcellulose) (HPC)) was 103 % of control; the T/C (dose: 200.0 mg/kg/injection, schedule: Q01DX009 (ip), vehicle: Klucel (hydroxypropylcellulose) (HPC)) is 100 % of control.

On to `CCCCCCCC/C=C\CCCCCCCC(=O)OCCCCCCCCCCCC`, for which the T/C (dose: 6.25 mg/kg/injection, schedule: Q01DX012 (ip), vehicle: saline with Tween-80) is 100 % of control; the T/C (dose: 12.5 mg/kg/injection, schedule: Q01DX012 (ip), vehicle: saline with Tween-80) was 104 % of control; the T/C (dose: 50.0 mg/kg/injection, schedule: Q01DX012 (ip), vehicle: saline with Tween-80) was 100 % of control; the T/C (dose: 100.0 mg/kg/injection, schedule: Q01DX012 (ip), vehicle: saline with Tween-80) was 98 % of control; the T/C (dose: 200.0 mg/kg/injection, schedule: Q01DX012 (ip), vehicle: saline with Tween-80) is 101 % of control; the T/C (dose: 500.0 mg/kg/injection, schedule: Q01DX012 (ip), vehicle: saline with Tween-80) is 106 % of control. Further, the T/C (dose: 872.0 mg/kg/injection, schedule: Q01DX012 (ip), vehicle: saline with Tween-80) was 97 % of control.

On to `O=C(O)CSC(=O)NCCCCCCNC(=O)Nc1ccccc1`, for which the T/C under setting [12] is 104 % of control, the T/C under setting [13] was 105 % of control and the T/C under setting [14] is 112 % of control.

Regarding `Cn1c2ccccc2c(=O)c2cc(NC(=O)CCCCCCCC(=O)Nc3ccc4c(c3)c(=O)c3ccccc3n4C)ccc21`, the T/C is 92 % of control under setting [12], 97 % of control under setting [13] and 101 % of control under setting [14].

Regarding `NC1=C(O)C(=O)C(c2c(Cl)cccc2Cl)O1` (centres undefined), the T/C is 105 % of control under setting [1]; 102 % of control under setting [2]; 105 % of control (dose: 240.0 mg/kg/injection, schedule: Q01DX005 (ip), vehicle: Klucel (hydroxypropylcellulose) (HPC)).

In the case of `NNc1cnc2ccccc2n1`, the T/C reads like this: (dose: 1.88 mg/kg/injection, schedule: Q01DX009 (ip), vehicle: suspension in saline) 93 % of control; (dose: 18.8 mg/kg/injection, schedule: Q04DX003 (ip), vehicle: saline) 101 % of control and 106 % of control; (dose: 37.5 mg/kg/injection, schedule: Q01DX009 (ip), vehicle: suspension in saline) 95 % of control; (dose: 37.5 mg/kg/injection, schedule: Q04DX003 (ip), vehicle: saline) 100 % of control and 103 % of control; (dose: 75.0 mg/kg/injection, schedule: Q01DX009 (ip), vehicle: suspension in saline) 90 % of control; (dose: 75.0 mg/kg/injection, schedule: Q04DX003 (ip), vehicle: saline) 100 % of control and 107 % of control.

As for `CCCCOS(=O)(=O)c1ccc([N+](C)(C)C)cc1`, the T/C is, setting by setting: under setting [9], 100 % of control; under setting [10], 102 % of control; under setting [11], 104 % of control.

For the compound `CC(=O)/C(=C\C=C\c1ccccc1)C(=O)CCN(C)C`, the T/C by setting is: (dose: 50.0 mg/kg/injection, schedule: Q01DX005 (ip), vehicle: saline) 98 % of control; (dose: 100.0 mg/kg/injection, schedule: Q01DX005 (ip), vehicle: saline) 109 % of control; (dose: 200.0 mg/kg/injection, schedule: Q01DX005 (ip), vehicle: saline) 118 % of control.

For `CN(C)CCCN1CCC2(CCC(C(C)(C)C)CC2)CC1`, the T/C is, setting by setting: under setting [12], 106 % of control; under setting [13], 116 % of control.
